Where “and” joins values, the source holds several entries; their conditions need not be identical. Equal values may be shown once. ± gives the expanded uncertainty stated by the source.
How the values were obtained:
[1] = xn = mol fraction of the nth substance listed; details: 298 K; 100 kPa; Crystal of intercomponent compound 1; X-ray diffraction; x2 = 0.451
[2] = specific heat capacity at constant pressure; xn = mol fraction of the nth substance listed; details: 100 kPa, Crystal of intercomponent compound 1, x2 = 0.451

SMILES: [S] [sulfur] + [In]
- mass density [1]: 5211 ± 300 kg/m3
- specific heat capacity ([2]; 14.16 K, relaxation calorimetry): 10.46 ± 1 J/K/kg
- specific heat capacity ([2]; 14.18 K, relaxation calorimetry): 10.51 ± 1 J/K/kg
- specific heat capacity ([2]; 16.17 K, relaxation calorimetry): 15.52 ± 1.2 J/K/kg
- specific heat capacity ([2]; 16.18 K, relaxation calorimetry): 15.54 ± 1.2 J/K/kg
- specific heat capacity ([2]; 16.19 K, relaxation calorimetry): 15.59 ± 1.2 J/K/kg
- specific heat capacity ([2]; 18.2 K, relaxation calorimetry): 21.32 ± 1.5 J/K/kg and 21.36 ± 1.5 J/K/kg
- specific heat capacity ([2]; 20.21 K, relaxation calorimetry): 27.47 ± 1.7 J/K/kg and 27.51 ± 1.7 J/K/kg
- specific heat capacity ([2]; 20.22 K, relaxation calorimetry): 27.57 ± 1.7 J/K/kg
- specific heat capacity ([2]; 22.23 K, relaxation calorimetry): 33.81 ± 1.9 J/K/kg and 33.8 ± 1.9 J/K/kg
- specific heat capacity ([2]; 22.24 K, relaxation calorimetry): 33.85 ± 1.9 J/K/kg
- specific heat capacity ([2]; 24.25 K, relaxation calorimetry): 40.26 ± 2.1 J/K/kg and 40.2 ± 2.1 J/K/kg
- specific heat capacity ([2]; 24.26 K, relaxation calorimetry): 40.28 ± 2.1 J/K/kg
- specific heat capacity ([2]; 26.26 K, relaxation calorimetry): 46.66 ± 2.3 J/K/kg and 46.68 ± 2.3 J/K/kg
- specific heat capacity ([2]; 26.27 K, relaxation calorimetry): 46.58 ± 2.3 J/K/kg
- specific heat capacity ([2]; 28.28 K, relaxation calorimetry): 52.75 ± 2.5 J/K/kg and 52.77 ± 2.5 J/K/kg and 52.81 ± 2.5 J/K/kg
- specific heat capacity ([2]; 30.3 K, relaxation calorimetry): 58.62 ± 2.6 J/K/kg and 58.63 ± 2.6 J/K/kg
- specific heat capacity ([2]; 30.31 K, relaxation calorimetry): 58.71 ± 2.6 J/K/kg
- specific heat capacity ([2]; 35.34 K, relaxation calorimetry): 72.92 ± 3.1 J/K/kg
- specific heat capacity ([2]; 35.36 K, relaxation calorimetry): 72.92 ± 3.1 J/K/kg
- specific heat capacity ([2]; 40.38 K, relaxation calorimetry): 85.85 ± 3.6 J/K/kg
- specific heat capacity ([2]; 45.42 K, relaxation calorimetry): 97.7 ± 4.1 J/K/kg
- specific heat capacity ([2]; 45.43 K, relaxation calorimetry): 97.63 ± 4.1 J/K/kg
- specific heat capacity ([2]; 45.44 K, relaxation calorimetry): 97.63 ± 4.1 J/K/kg
- specific heat capacity ([2]; 50.46 K, relaxation calorimetry): 109.27 ± 4.5 J/K/kg and 109.41 ± 4.6 J/K/kg
- specific heat capacity ([2]; 50.48 K, relaxation calorimetry): 109.27 ± 4.5 J/K/kg
- specific heat capacity ([2]; 55.5 K, relaxation calorimetry): 120.03 ± 5 J/K/kg and 120.1 ± 5 J/K/kg
- specific heat capacity ([2]; 55.51 K, relaxation calorimetry): 120.17 ± 5 J/K/kg
- specific heat capacity ([2]; 60.54 K, relaxation calorimetry): 130.38 ± 5.4 J/K/kg and 130.24 ± 5.4 J/K/kg
- specific heat capacity ([2]; 65.58 K, relaxation calorimetry): 140.8 ± 5.8 J/K/kg and 140.86 ± 5.8 J/K/kg
- specific heat capacity ([2]; 65.59 K, relaxation calorimetry): 140.8 ± 5.8 J/K/kg
- specific heat capacity ([2]; 70.62 K, relaxation calorimetry): 151.01 ± 6.2 J/K/kg and 151.08 ± 6.2 J/K/kg
- specific heat capacity ([2]; 70.64 K, relaxation calorimetry): 150.94 ± 6.2 J/K/kg
- specific heat capacity ([2]; 75.66 K, relaxation calorimetry): 160.88 ± 6.6 J/K/kg and 160.47 ± 6.5 J/K/kg and 160.68 ± 6.6 J/K/kg
- specific heat capacity ([2]; 80.69 K, relaxation calorimetry): 170.82 ± 7 J/K/kg and 170.68 ± 6.9 J/K/kg and 170.62 ± 6.9 J/K/kg
- specific heat capacity ([2]; 85.73 K, relaxation calorimetry): 180.22 ± 7.4 J/K/kg and 180.15 ± 7.4 J/K/kg and 179.74 ± 7.4 J/K/kg
- specific heat capacity ([2]; 90.75 K, relaxation calorimetry): 189.47 ± 7.8 J/K/kg
- specific heat capacity ([2]; 90.77 K, relaxation calorimetry): 189.13 ± 7.7 J/K/kg and 188.59 ± 7.7 J/K/kg
- specific heat capacity ([2]; 95.78 K, relaxation calorimetry): 197.58 ± 8 J/K/kg
- specific heat capacity ([2]; 95.79 K, relaxation calorimetry): 197.17 ± 8 J/K/kg and 197.1 ± 8 J/K/kg
- specific heat capacity ([2]; 100.82 K, relaxation calorimetry): 204.93 ± 8.4 J/K/kg
- specific heat capacity ([2]; 100.83 K, relaxation calorimetry): 204.59 ± 8.3 J/K/kg
- specific heat capacity ([2]; 100.92 K, relaxation calorimetry): 204.18 ± 8.3 J/K/kg
- specific heat capacity ([2]; 105.86 K, relaxation calorimetry): 212.83 ± 8.6 J/K/kg
- specific heat capacity ([2]; 105.87 K, relaxation calorimetry): 213.24 ± 8.7 J/K/kg and 212.76 ± 8.6 J/K/kg
- specific heat capacity ([2]; 113.82 K, relaxation calorimetry): 223.18 ± 9.1 J/K/kg and 223.24 ± 9.1 J/K/kg and 222.9 ± 9.1 J/K/kg
- specific heat capacity ([2]; 121.72 K, relaxation calorimetry): 233.18 ± 9.5 J/K/kg
- specific heat capacity ([2]; 121.75 K, relaxation calorimetry): 233.18 ± 9.5 J/K/kg
- specific heat capacity ([2]; 121.76 K, relaxation calorimetry): 233.12 ± 9.5 J/K/kg
- specific heat capacity ([2]; 129.68 K, relaxation calorimetry): 241.97 ± 9.8 J/K/kg
- specific heat capacity ([2]; 129.69 K, relaxation calorimetry): 242.31 ± 9.9 J/K/kg and 241.97 ± 9.8 J/K/kg
- specific heat capacity ([2]; 137.6 K, relaxation calorimetry): 249.86 ± 10 J/K/kg
- specific heat capacity ([2]; 137.62 K, relaxation calorimetry): 250 ± 10 J/K/kg
- specific heat capacity ([2]; 145.51 K, relaxation calorimetry): 257.22 ± 10 J/K/kg
- specific heat capacity ([2]; 145.55 K, relaxation calorimetry): 257.15 ± 10 J/K/kg and 256.88 ± 10 J/K/kg
- specific heat capacity ([2]; 153.44 K, relaxation calorimetry): 264.09 ± 11 J/K/kg
- specific heat capacity ([2]; 153.45 K, relaxation calorimetry): 264.23 ± 11 J/K/kg
- specific heat capacity ([2]; 153.46 K, relaxation calorimetry): 264.03 ± 11 J/K/kg
- specific heat capacity ([2]; 161.36 K, relaxation calorimetry): 269.88 ± 11 J/K/kg
- specific heat capacity ([2]; 161.38 K, relaxation calorimetry): 270.02 ± 11 J/K/kg
- specific heat capacity ([2]; 161.39 K, relaxation calorimetry): 270.08 ± 11 J/K/kg
- specific heat capacity ([2]; 169.28 K, relaxation calorimetry): 275.6 ± 11 J/K/kg
- specific heat capacity ([2]; 169.31 K, relaxation calorimetry): 275.74 ± 11 J/K/kg
- specific heat capacity ([2]; 169.32 K, relaxation calorimetry): 275.46 ± 11 J/K/kg
- specific heat capacity ([2]; 177.2 K, relaxation calorimetry): 280.36 ± 11 J/K/kg
- specific heat capacity ([2]; 177.24 K, relaxation calorimetry): 280.23 ± 11 J/K/kg and 280.3 ± 11 J/K/kg
- specific heat capacity ([2]; 185.14 K, relaxation calorimetry): 284.52 ± 12 J/K/kg
- specific heat capacity ([2]; 185.17 K, relaxation calorimetry): 284.79 ± 12 J/K/kg and 284.86 ± 12 J/K/kg
- specific heat capacity ([2]; 193.05 K, relaxation calorimetry): 288.4 ± 12 J/K/kg
- specific heat capacity ([2]; 193.08 K, relaxation calorimetry): 288.74 ± 12 J/K/kg
- specific heat capacity ([2]; 193.09 K, relaxation calorimetry): 289.08 ± 12 J/K/kg
- specific heat capacity ([2]; 200.97 K, relaxation calorimetry): 292.69 ± 12 J/K/kg
- specific heat capacity ([2]; 201 K, relaxation calorimetry): 292.89 ± 12 J/K/kg
- specific heat capacity ([2]; 201.01 K, relaxation calorimetry): 293.03 ± 12 J/K/kg
- specific heat capacity ([2]; 208.88 K, relaxation calorimetry): 296.02 ± 12 J/K/kg
- specific heat capacity ([2]; 208.92 K, relaxation calorimetry): 295.96 ± 12 J/K/kg and 296.16 ± 12 J/K/kg
- specific heat capacity ([2]; 216.78 K, relaxation calorimetry): 299.56 ± 12 J/K/kg
- specific heat capacity ([2]; 216.82 K, relaxation calorimetry): 299.7 ± 12 J/K/kg
- specific heat capacity ([2]; 216.83 K, relaxation calorimetry): 299.7 ± 12 J/K/kg
- specific heat capacity ([2]; 224.7 K, relaxation calorimetry): 302.56 ± 12 J/K/kg
- specific heat capacity ([2]; 224.74 K, relaxation calorimetry): 303.1 ± 12 J/K/kg
- specific heat capacity ([2]; 224.75 K, relaxation calorimetry): 302.7 ± 12 J/K/kg
- specific heat capacity ([2]; 232.6 K, relaxation calorimetry): 305.01 ± 12 J/K/kg
- specific heat capacity ([2]; 232.66 K, relaxation calorimetry): 305.01 ± 12 J/K/kg and 305.22 ± 12 J/K/kg
- specific heat capacity ([2]; 240.51 K, relaxation calorimetry): 306.71 ± 12 J/K/kg
- specific heat capacity ([2]; 240.54 K, relaxation calorimetry): 307.67 ± 13 J/K/kg and 307.53 ± 12 J/K/kg
- specific heat capacity ([2]; 248.4 K, relaxation calorimetry): 309.84 ± 13 J/K/kg
- specific heat capacity ([2]; 248.45 K, relaxation calorimetry): 310.12 ± 13 J/K/kg
- specific heat capacity ([2]; 248.48 K, relaxation calorimetry): 308.89 ± 13 J/K/kg
- specific heat capacity ([2]; 256.34 K, relaxation calorimetry): 310.59 ± 13 J/K/kg
- specific heat capacity ([2]; 256.4 K, relaxation calorimetry): 310.73 ± 13 J/K/kg and 310.66 ± 13 J/K/kg
- specific heat capacity ([2]; 262.24 K, Extra sensitive DSC): 315.9 ± 12 J/K/kg
- specific heat capacity ([2]; 264.24 K, relaxation calorimetry): 312.43 ± 13 J/K/kg
- specific heat capacity ([2]; 264.3 K, relaxation calorimetry): 312.98 ± 13 J/K/kg
- specific heat capacity ([2]; 264.31 K, relaxation calorimetry): 312.98 ± 13 J/K/kg
- specific heat capacity ([2]; 265 K, Extra sensitive DSC): 316.72 ± 12 J/K/kg
- specific heat capacity ([2]; 270 K, Extra sensitive DSC): 317.74 ± 12 J/K/kg
- specific heat capacity ([2]; 275 K, Extra sensitive DSC): 319.31 ± 12 J/K/kg
- specific heat capacity ([2]; 280 K, Extra sensitive DSC): 320.94 ± 12 J/K/kg
- specific heat capacity ([2]; 285 K, Extra sensitive DSC): 322.44 ± 12 J/K/kg
- specific heat capacity ([2]; 290 K, Extra sensitive DSC): 323.94 ± 13 J/K/kg
- specific heat capacity ([2]; 295 K, Extra sensitive DSC): 325.44 ± 13 J/K/kg
- specific heat capacity ([2]; 300 K, Extra sensitive DSC): 326.59 ± 13 J/K/kg
- specific heat capacity ([2]; 305 K, Extra sensitive DSC): 328.02 ± 13 J/K/kg
- specific heat capacity ([2]; 310 K, Extra sensitive DSC): 329.18 ± 13 J/K/kg
- specific heat capacity ([2]; 315 K, Extra sensitive DSC): 329.93 ± 13 J/K/kg
- specific heat capacity ([2]; 320 K, Extra sensitive DSC): 330.54 ± 13 J/K/kg
- specific heat capacity ([2]; 325 K, Extra sensitive DSC): 331.29 ± 13 J/K/kg
- specific heat capacity ([2]; 330 K, Extra sensitive DSC): 332.31 ± 13 J/K/kg
- specific heat capacity ([2]; 335 K, Extra sensitive DSC): 333.13 ± 13 J/K/kg
- specific heat capacity ([2]; 337.86 K, Extra sensitive DSC): 333.4 ± 13 J/K/kg
- specific heat capacity ([2]; 340.38 K, Extra sensitive DSC): 332.92 ± 13 J/K/kg
- specific heat capacity ([2]; 343.85 K, Extra sensitive DSC): 333.47 ± 13 J/K/kg
- specific heat capacity ([2]; 345.58 K, Extra sensitive DSC): 333.74 ± 13 J/K/kg
- specific heat capacity ([2]; 348.19 K, Extra sensitive DSC): 335.31 ± 13 J/K/kg
- specific heat capacity ([2]; 350.79 K, Extra sensitive DSC): 335.51 ± 13 J/K/kg
- specific heat capacity ([2]; 353.39 K, Extra sensitive DSC): 335.99 ± 13 J/K/kg
- specific heat capacity ([2]; 355.13 K, Extra sensitive DSC): 336.53 ± 13 J/K/kg
- specific heat capacity ([2]; 356 K, Extra sensitive DSC): 335.78 ± 13 J/K/kg
- specific heat capacity ([2]; 358.6 K, Extra sensitive DSC): 336.4 ± 13 J/K/kg
